System: dental root or periodontal tissue
Test: Transplantation of mouse molar embedded in agarose beads containing fargesin into host mouse kidney capsule; micro CT
Type: in vivo, C57BL/6 mouse
Details: beads soaked in 80 μm fargesin in PBS, molar of 5-day-old mouse grafted into kidney capsule of 8-week-old host mouse, 3 weeks, vs PBS control
Method: The following experiment was performed in order to investigate the promoting effect of the fargesin isolated from the Magnolia flower extract on the growth of dental root or periodontal tissue.
Particularly, the fargesin obtained in Example 1 was diluted in PBS (Dainippon Pharmaceuticals Inc., Japan) at the final concentration of 80 μm, and four agarose beads (Affi-Gel Blue Gel, #153-7301, Bio-Rad Laboratories Inc., Japan) were washed with PBS, followed by reaction for at least 60 minutes to allow the fargesin to be absorbed in those beads. For the control, 4 other beads were reacted only with PBS. A 5-day-old C57BL/6 mouse (Sankyo Labo Service Corporation, Japan) was sacrificed, from which molars were extracted from the lower jaws. Dental pulp of the extracted molar was embedded in the agarose beads containing fargesin. For the control, dental pulp of the extracted molar was embedded in the agarose beads containing PBS alone. The agarose beads were each grafted into capsules of the 8-week-old C57BL/6 host mouse (female, Sankyo Labo Service Corporation, Japan) kidneys. The host mice were raised in the conditions of 12 h/12 h light and dark cycle, room temperature, and free feeding. 3 weeks later, the mice were sacrificed, from which the kidneys were extracted. Then, the teeth were observed. The 3D image of the teeth was taken by micro CT (Rigaku R_mCT2).

## COc1ccc([C@@H]2OC[C@H]3[C@@H]2CO[C@@H]3c2ccc3c(c2)OCO3)cc1OC [fargesin]
  formation of alveolar bone around the grafted tooth: observed
  growth of dental root: significant
